Where two headings read alike, the source gives them in different places.
Key:
[1] = Franz diffusion cell, membrane diffusion across hairless mouse skin; assay type: in vitro ADME
Description: Diffusion of the compounds through hairless mouse skin into phosphate buffer in a Franz cell was carried out and measured as described in Example 1, with Sudan I being used in place of Fat Brown RR.

[2] = Franz diffusion cell, membrane diffusion across poly(dimethylsiloxane) membrane; details: ranking of excipients
[3] = 0 h

Compound	CUMULATIVE AMOUNT OF COMPOUND DIFFUSED ACROSS SKIN ([1]; Table 3, saturated solution in alpha-terpineol, 0 hours)	CUMULATIVE AMOUNT OF COMPOUND DIFFUSED ACROSS SKIN ([1]; Table 3, saturated solution in alpha-terpineol, 24 hours)	CUMULATIVE AMOUNT OF COMPOUND DIFFUSED ACROSS SKIN ([1]; Table 3, saturated solution in alpha-terpineol, 50 hours)	CUMULATIVE AMOUNT OF COMPOUND DIFFUSED ACROSS SKIN ([1]; Table 3, saturated solution in alpha-terpineol, 59 hours)	CUMULATIVE AMOUNT OF COMPOUND DIFFUSED ACROSS SKIN ([1]; Table 3, saturated solution in isostearic acid, 0 hours)	CUMULATIVE AMOUNT OF COMPOUND DIFFUSED ACROSS SKIN ([1]; Table 3, saturated solution in isostearic acid, 24 hours)	CUMULATIVE AMOUNT OF COMPOUND DIFFUSED ACROSS SKIN ([1]; Table 3, saturated solution in isostearic acid, 50 hours)	CUMULATIVE AMOUNT OF COMPOUND DIFFUSED ACROSS SKIN ([1]; Table 3, saturated solution in isostearic acid, 59 hours)	CUMULATIVE AMOUNT OF COMPOUND DIFFUSED ACROSS SKIN ([1]; Table 3, saturated solution in propylene glycol, 0 hours)	CUMULATIVE AMOUNT OF COMPOUND DIFFUSED ACROSS SKIN ([1]; Table 3, saturated solution in propylene glycol, 24 hours)	CUMULATIVE AMOUNT OF COMPOUND DIFFUSED ACROSS SKIN ([1]; Table 3, saturated solution in propylene glycol, 50 hours)	CUMULATIVE AMOUNT OF COMPOUND DIFFUSED ACROSS SKIN ([1]; Table 3, saturated solution in propylene glycol, 59 hours)	CUMULATIVE AMOUNT OF COMPOUND DIFFUSED ACROSS SKIN ([1]; Table 3, saturated solution in tetraglycol, 0 hours)	CUMULATIVE AMOUNT OF COMPOUND DIFFUSED ACROSS SKIN ([1]; Table 3, saturated solution in tetraglycol, 24 hours)	CUMULATIVE AMOUNT OF COMPOUND DIFFUSED ACROSS SKIN ([1]; Table 3, saturated solution in tetraglycol, 50 hours)	CUMULATIVE AMOUNT OF COMPOUND DIFFUSED ACROSS SKIN ([1]; Table 3, saturated solution in tetraglycol, 59 hours)	relative order for membrane diffusion rate ([1]; ranking of excipients)	relative order for membrane diffusion rate [2]	CUMULATIVE AMOUNT OF COMPOUND DIFFUSED ACROSS SKIN [3]
Oc1ccc2ccccc2c1N=Nc1ccccc1 [Sudan I]	0 μg/10 mL	72 μg/10 mL	201 μg/10 mL	259 μg/10 mL	0 μg/10 mL	38 μg/10 mL	118 μg/10 mL	149 μg/10 mL	0 μg/10 mL	31 μg/10 mL	108 μg/10 mL	142 μg/10 mL	0 μg/10 mL	11 μg/10 mL	61 μg/10 mL	81 μg/10 mL	alpha-terpineol>tetraglycol	–	–
C#C[C@]1(O)CC[C@H]2[C@@H]3CCC4=CC(=O)CC[C@@H]4[C@H]3CC[C@@]21CC [levonorgestrel]	–	–	–	–	–	–	–	–	–	–	–	–	–	–	–	–	–	alpha-terpineol>isostearic acid>tetraglycol	0 μg/10 mL

Reference: patent US20050065062A1, “Method of formulating a pharmaceutical composition” (3M Innovative Properties Company, priority 2003, published 2005)
